In US9102931B1, “Yeast strains and method for lignocellulose to ethanol production” (priority 2012, dated 2015):

What was measured:
[1] = molecular target: T1, S. stipitis xylose transporter XUT7, SEQ ID NO: 65, in S. cerevisiae Y-50049-YXI-XUT7 (NRRL Y-50466) (Scheffersomyces stipitis, UniProt J9PER1); assay: Aerobic xylose uptake kinetics (Lineweaver-Burk), Y-50049-YXI-XUT7; format: cell-based; settings: whole cells, 30° C.
T1 construct: whole-cell xylose uptake; S. stipitis CUG codons are read as Leu in this host
T1 sequence (J9PER1 1-418): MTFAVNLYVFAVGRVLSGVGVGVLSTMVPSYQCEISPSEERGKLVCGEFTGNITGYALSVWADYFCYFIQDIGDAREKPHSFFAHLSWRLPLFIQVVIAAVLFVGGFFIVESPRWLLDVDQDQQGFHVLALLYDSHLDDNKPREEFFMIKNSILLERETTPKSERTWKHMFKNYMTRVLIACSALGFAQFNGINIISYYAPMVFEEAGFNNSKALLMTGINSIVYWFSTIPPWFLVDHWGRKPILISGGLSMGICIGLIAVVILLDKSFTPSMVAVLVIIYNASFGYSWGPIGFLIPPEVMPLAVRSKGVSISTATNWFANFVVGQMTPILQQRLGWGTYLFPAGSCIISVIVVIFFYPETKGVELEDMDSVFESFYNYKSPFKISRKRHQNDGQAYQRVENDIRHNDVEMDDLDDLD
Description: (§1) A portion of promoter and terminator for PGK1 was amplified from S. cerevisiae NRRL Y-50049 genomic DNA using primers PGK_PL/PGK_PR and PGK_TL/PGK_TR, as detailed in the Description of Sequences above. Amplified PGK1 fragments were cloned into vector pRS42H resulting in pRS42H -PGK1 promoter-terminator. Six putative xylose transporter genes XUT4, XUT5, XUT6, XUT7, RGT2, and SUT4 were amplified using various primers from the genomic DNA of S. stipitis. Each xylose transporter gene was cloned into the S. cerevisiae expression vector pRS42H-PGK1 promoter-terminator with proper restriction endonuclease sites designed. All DNA oligos were synthesized by IDT (Coralville, Iowa). […]
(§2) The relative performance of yeast strains Y-50746, Y-50747, Y-50748, Y-50749, Y-50465, and Y-50466 containing a xylose isomerase gene and a xylose xylose transporter gene was further assessed in cell populations that were first grown aerobically on xylose and then transferred into fresh culture medium at high cell density. […] Aerobic xylose uptake rate was assessed for the host strain Y-50049−YXI and each of its six xylose transporter-expressing derivatives. […] Once xylose was added to cultures, the reaction timing began, and the first sample was immediately taken, diluted for optical density reading, and centrifuged (10,000 rpm, 6 min). […]

[2] = test system: S. stipitis Y-7124 xylose proton symporters; settings: associated with S. stipitis symport, approximate (~); cited from earlier work
[3] = molecular target: T2, S. stipitis xylose transporter RGT2, SEQ ID NO: 64, in S. cerevisiae Y-50049-YXI-RGT2 (NRRL Y-50465) (Scheffersomyces stipitis, UniProt J9PF54); assay: Aerobic xylose uptake kinetics (Lineweaver-Burk), Y-50049-YXI-RGT2; format: cell-based; settings: whole cells, 30° C.
T2 construct: whole-cell xylose uptake; S. stipitis CUG codons are read as Leu in this host
T2 sequence (J9PF54 1-528): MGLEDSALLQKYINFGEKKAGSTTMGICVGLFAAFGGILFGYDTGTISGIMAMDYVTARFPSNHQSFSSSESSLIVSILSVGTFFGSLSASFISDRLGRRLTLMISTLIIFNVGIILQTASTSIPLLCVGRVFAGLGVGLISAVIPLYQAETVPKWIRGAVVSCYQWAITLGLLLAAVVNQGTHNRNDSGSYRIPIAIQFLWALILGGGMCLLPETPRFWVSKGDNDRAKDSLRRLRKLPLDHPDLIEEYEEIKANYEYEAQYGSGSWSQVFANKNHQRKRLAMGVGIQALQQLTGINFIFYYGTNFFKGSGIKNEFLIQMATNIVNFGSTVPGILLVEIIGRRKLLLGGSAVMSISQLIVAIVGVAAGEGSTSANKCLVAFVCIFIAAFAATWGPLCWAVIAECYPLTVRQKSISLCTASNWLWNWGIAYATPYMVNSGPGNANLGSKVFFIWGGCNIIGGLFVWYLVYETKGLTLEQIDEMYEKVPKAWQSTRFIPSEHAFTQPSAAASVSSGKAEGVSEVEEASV
Description: as §1, §2

[4] = molecular target: T3, S. stipitis xylose transporter XUT4, SEQ ID NO: 68, in S. cerevisiae Y-50049-YXI-XUT4 (NRRL Y-50747) (Scheffersomyces stipitis, UniProt J9PED0); assay: Aerobic xylose uptake kinetics (Lineweaver-Burk), Y-50049-YXI-XUT4; format: cell-based; settings: whole cells, 30° C.
T3 construct: whole-cell xylose uptake; S. stipitis CUG codons are read as Leu in this host
T3 sequence (J9PED0 entry or part of it): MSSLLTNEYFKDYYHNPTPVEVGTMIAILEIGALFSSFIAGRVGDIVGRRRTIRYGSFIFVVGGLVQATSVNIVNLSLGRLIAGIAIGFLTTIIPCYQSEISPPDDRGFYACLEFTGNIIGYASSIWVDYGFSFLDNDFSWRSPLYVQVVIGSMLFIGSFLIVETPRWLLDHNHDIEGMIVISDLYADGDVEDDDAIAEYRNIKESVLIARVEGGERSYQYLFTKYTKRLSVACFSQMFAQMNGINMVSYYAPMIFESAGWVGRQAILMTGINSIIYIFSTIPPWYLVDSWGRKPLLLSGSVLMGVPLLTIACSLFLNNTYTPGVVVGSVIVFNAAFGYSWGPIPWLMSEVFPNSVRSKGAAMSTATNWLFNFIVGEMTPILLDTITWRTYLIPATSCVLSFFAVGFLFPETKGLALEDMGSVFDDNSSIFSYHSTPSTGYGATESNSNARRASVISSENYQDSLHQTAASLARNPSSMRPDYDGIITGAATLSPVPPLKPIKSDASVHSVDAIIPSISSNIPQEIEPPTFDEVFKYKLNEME
Description: as §1, §2

[5] = molecular target: T4, S. stipitis xylose transporter SUT4, SEQ ID NO: 69, in S. cerevisiae Y-50049-YXI-SUT4 (NRRL Y-50748) (Scheffersomyces stipitis, UniProt J9Q8Z9); assay: Aerobic xylose uptake kinetics (Lineweaver-Burk), Y-50049-YXI-SUT4; format: cell-based; settings: whole cells, 30° C.
T4 construct: whole-cell xylose uptake; S. stipitis CUG codons are read as Leu in this host
T4 sequence (J9Q8Z9 1-549): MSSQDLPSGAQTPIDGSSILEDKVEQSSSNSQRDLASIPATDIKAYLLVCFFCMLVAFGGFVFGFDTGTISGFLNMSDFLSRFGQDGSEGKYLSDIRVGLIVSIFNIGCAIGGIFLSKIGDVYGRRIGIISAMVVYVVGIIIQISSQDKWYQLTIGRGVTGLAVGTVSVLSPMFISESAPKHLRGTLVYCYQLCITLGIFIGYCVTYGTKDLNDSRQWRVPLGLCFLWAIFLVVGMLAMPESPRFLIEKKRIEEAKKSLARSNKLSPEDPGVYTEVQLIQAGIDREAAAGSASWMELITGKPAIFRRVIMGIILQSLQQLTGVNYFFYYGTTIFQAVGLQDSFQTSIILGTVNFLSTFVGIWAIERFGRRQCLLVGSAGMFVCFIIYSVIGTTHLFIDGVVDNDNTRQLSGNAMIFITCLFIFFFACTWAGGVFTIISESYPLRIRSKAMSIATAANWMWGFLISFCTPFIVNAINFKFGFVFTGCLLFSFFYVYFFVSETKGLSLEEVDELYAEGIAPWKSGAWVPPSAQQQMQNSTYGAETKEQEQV
Description: as §1, §2

[6] = molecular target: T5, S. stipitis xylose transporter XUT6, SEQ ID NO: 67, in S. cerevisiae Y-50049-YXI-XUT6 (NRRL Y-50749) (Scheffersomyces stipitis, UniProt J9Q9F3); assay: Aerobic xylose uptake kinetics (Lineweaver-Burk), Y-50049-YXI-XUT6; format: cell-based; settings: whole cells, 30° C.
T5 construct: whole-cell xylose uptake; S. stipitis CUG codons are read as Leu in this host
T5 sequence (J9Q9F3 1-544): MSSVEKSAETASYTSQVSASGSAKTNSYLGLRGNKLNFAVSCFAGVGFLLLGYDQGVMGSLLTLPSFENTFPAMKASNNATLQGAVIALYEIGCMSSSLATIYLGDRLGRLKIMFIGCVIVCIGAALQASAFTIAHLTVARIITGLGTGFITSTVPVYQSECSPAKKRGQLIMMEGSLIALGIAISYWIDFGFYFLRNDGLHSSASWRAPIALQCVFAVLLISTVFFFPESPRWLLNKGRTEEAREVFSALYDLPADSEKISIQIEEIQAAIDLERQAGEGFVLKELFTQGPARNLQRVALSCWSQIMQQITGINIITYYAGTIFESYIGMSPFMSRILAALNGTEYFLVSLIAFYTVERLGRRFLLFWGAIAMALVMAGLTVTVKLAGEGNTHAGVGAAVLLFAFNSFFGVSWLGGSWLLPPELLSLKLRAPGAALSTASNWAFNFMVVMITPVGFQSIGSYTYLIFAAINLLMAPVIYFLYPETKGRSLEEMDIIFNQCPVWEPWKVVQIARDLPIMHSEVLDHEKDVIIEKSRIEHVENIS
Description: as §1, §2

[7] = molecular target: T6, S. stipitis xylose transporter XUT5, SEQ ID NO: 66, in S. cerevisiae Y-50049-YXI-XUT5 (NRRL Y-50746) (Scheffersomyces stipitis, UniProt A3LY79); assay: Aerobic xylose uptake kinetics (Lineweaver-Burk), Y-50049-YXI-XUT5; format: cell-based; settings: whole cells, 30° C.
T6 construct: whole-cell xylose uptake; S. stipitis CUG codons are read as Leu in this host
T6 sequence (A3LY79 entry or part of it): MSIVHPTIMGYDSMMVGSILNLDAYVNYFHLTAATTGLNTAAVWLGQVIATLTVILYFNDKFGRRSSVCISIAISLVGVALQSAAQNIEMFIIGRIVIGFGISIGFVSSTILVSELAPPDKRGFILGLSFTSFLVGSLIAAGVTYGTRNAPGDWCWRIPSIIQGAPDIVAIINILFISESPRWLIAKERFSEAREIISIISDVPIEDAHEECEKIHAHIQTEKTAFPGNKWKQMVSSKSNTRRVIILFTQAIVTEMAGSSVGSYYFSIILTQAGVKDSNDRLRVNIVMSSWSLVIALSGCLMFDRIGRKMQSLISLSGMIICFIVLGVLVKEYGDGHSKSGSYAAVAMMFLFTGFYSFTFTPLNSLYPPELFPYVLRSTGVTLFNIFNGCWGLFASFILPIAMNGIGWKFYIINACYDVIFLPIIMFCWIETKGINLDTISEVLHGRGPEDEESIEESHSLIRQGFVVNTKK
Description: as §1, §2

[8] = test system: native xylose uptake of S. cerevisiae Y-50049-YXI (control host strain, YXI xylose isomerase SEQ ID NO: 63, no added xylose transporter gene); assay: Aerobic xylose uptake kinetics (Lineweaver-Burk), host strain Y-50049-YXI (control); format: cell-based; settings: whole cells, 30° C.
Description: The relative performance of yeast strains Y-50746, Y-50747, Y-50748, Y-50749, Y-50465, and Y-50466 containing a xylose isomerase gene and a xylose xylose transporter gene was further assessed in cell populations that were first grown aerobically on xylose and then transferred into fresh culture medium at high cell density. Under these conditions a high metabolic carbon demand creates the potential for transport to be a limiting factor and amplifies volumetric xylose consumption from the medium. Aerobic xylose uptake rate was assessed for the host strain Y-50049−YXI and each of its six xylose transporter-expressing derivatives. […] Once xylose was added to cultures, the reaction timing began, and the first sample was immediately taken, diluted for optical density reading, and centrifuged (10,000 rpm, 6 min). […] Subsequent samples were collected at 2 h, 4 h, 6 h, and the specific xylose consumption rate (V) was calculated as the rate of decline in xylose concentration (X)/per dry cell concentration (b), assuming the linear correlation of dry yeast biomass concentration with absorbance, b=(0.167 g/L). […] The relative statistical differences between strain performances due to the specific transporter gene expressed were determined by running a two-way analysis of variance of V as a function of the transporter gene and the initial xylose concentration. […]

## OC1OC[C@@H](O)[C@H](O)[C@H]1O (stereo partly drawn) [xylose, D-xylose]
[1]
  Vmax: 0.26 g/g/h
[2]
  Km: 0.01 to 0.3 g/L
[3]
  Vmax: 0.28 g/g/h
[4]
  Vmax: 0.35 g/g/h
[5]
  Vmax: 0.36 g/g/h
[6]
  Vmax: 0.33 g/g/h
[7]
  Vmax: 0.88 g/g/h
[8]
  Vmax: 0.14 g/g/h
